# Test results reported in US8178506B2, “Oligomeric compounds and compositions for use in modulation of small non-coding RNAs” (Regulus Therapeutics Inc., priority 2003, dated 2012).
# In the oligonucleotide strings, read from the 5' end, every base follows the letter of its sugar. An asterisk marks phosphorothioate; unmarked linkages are phosphodiester. Other units and linkages are bracketed, terminal groups are in braces. A string of capitals states the bases alone. e = 2'-O-(2-methoxyethyl) (MOE); [5mC] = 5-methylcytosine; d = 2'-deoxy (DNA)
# Assays:
# Format in all cases: cell-based, human
# [1] = tested on: preadipocytes / differentiating adipocytes; assay: Adipocyte differentiation assay, markers taken together
# Description: Oligomeric compounds of the invention are tested for their effects on preadipocyte differentiation. […] For the other adipocyte differentiation markers assayed, an oligomeric compound targeted to PPAR-γ, also known to inhibit adipocyte differentiation, may be used as a positive control.
# Cells are transfected as described herein. […] Untreated control cells receive LIPOFECTIN™ only.
# After the cells have reach confluence (approximately three days), they are exposed for an additional three days to differentiation medium (Zen-Bio, Inc., Research Triangle Park, N.C.) containing a PPAR-γ agonist, IBMX, dexamethasone, and insulin. Cells are then fed adipocyte medium (Zen-Bio, Inc.), which is replaced at 2 or 3 day intervals.
# For assaying adipocyte differentiation, expression of the four hallmark genes, HSL, aP2, Glut4, and PPARγ, as well as triglyceride (TG) accumulation and leptin secretion were measured in adipocytes transfected with the uniform 2′-MOE phosphorothioate (PS) oligomeric compounds previously described. Cells are lysed on day nine post-transfection, in a guanadinium-containing buffer and total RNA is harvested. Real-time PCR is performed (Applied Biosystems, Prism 7700) on the total RNA using the following primer/probe sets for the adipocyte differentiation hallmark genes: (aP2): forward 5′-GGTGGTGGAATGCGTCATG-3′ (SEQ ID NO: 746), reverse 5′-[…]-3′ (SEQ ID NO: 747), probe 5′-FAM-[…]-TAMRA-3′ (SEQ ID NO: 748); (Glut4): forward 5′-GGCCTCCGCAGGTTCTG-3′ (SEQ ID NO: 749), reverse 5′-[…]-3′ (SEQ ID NO: 750), probe 5′-FAM-[…]-TAMRA-3′ (SEQ ID NO: 751); (HSL): forward 5′-ACCTGCGCACAATGACACA-3′ (SEQ ID NO: 752), reverse 5′-[…]-3′ (SEQ ID NO: 753), probe 5′-FAM-[…]-TAMRA-3′ (SEQ ID NO: 754); (PPAR-γ): forward 5′-[…]-3′ (SEQ ID NO: 755), reverse 5′-[…]-3′ (SEQ ID NO: 756), probe 5′-FAM-[…]-TAMRA-3′ (SEQ ID NO: 757). The amount of total RNA in each sample is determined using a Ribogreen Assay (Molecular Probes, Eugene, Oreg.), and expression levels of the adipocyte differentiation hallmark genes were normalized to total RNA. Leptin protein and triglyceride levels as well as mRNA levels for each of the four adipocyte differentiation hallmark genes are expressed relative to control levels (control=treatment with ISIS-29848 (SEQ ID NO: 737)).
# In some embodiments, differentiating adipocytes were treated with uniform 2′-MOE phosphorothioate oligomeric compounds according to the methods described above, and the expression of the four hallmark genes, HSL, aP2, Glut4, and PPARγ, as well as triglyceride (TG) accumulation were measured. […] Undifferentiated adipocytes were also compared as a negative control. […] The effects of TNF-α, also known to inhibit adipocyte differentiation, were also measured.
# [2] = tested on: HeLa cells; assay: Cell cycle assay in HeLa cells; details: HeLa cells; for % cells in cell cycle phase: G1 / % cells in cell cycle phase: G2/M / % cells in cell cycle phase: S / % cells in cell cycle phase: aneuploid / % cells in cell cycle phase: subG1: 48 hours after treatment, relative to untreated control (UTC=100)
# [3] = tested on: T47D cells; assay: Cell cycle assay in T47D cells; details: 150 nM, 48 hours, relative to untreated control
# Description: BJ cells were routinely cultured in MEM high glucose with 2 mM L-glutamine and Earle's BSS adjusted to contain 1.5 g/L sodium bicarbonate and supplemented with 10% fetal bovine serum, 0.1 mM non-essential amino acids and 1.0 mM sodium pyruvate (all media and supplements from Invitrogen Life Technologies, Carlsbad, Calif.). B16-F10 cells were routinely cultured in DMEM high glucose (Invitrogen Life Technologies, Carlsbad, Calif.) supplemented with 10% fetal bovine serum (Invitrogen Life Technologies, Carlsbad, Calif.). T47D cells were cultured in DMEM High glucose media (Invitrogen Life Technologies, Carlsbad, Calif.) supplemented with 10% fetal bovine serum. […] Cells were plated on collagen-coated 24-well plates (Falcon-Primaria #3047, BD Biosciences, Bedford, Mass.) at approximately 50,000 cells per well and allowed to attach to wells overnight.
# (§1) In further studies, additional cell lines were treated with oligomeric compounds targeted against miRNAs to assess the effects of each oligomeric compound on cell cycling. BJ, B16, T47D, and HeLa cells were cultured and transfected as described above. […] T47Dp53 cells are T47D cells that have been transfected with and selected for maintenance of a plasmid that expresses a wildtype copy of the p53 gene (for example, pCMV-p53; Clontech, Palo Alto, Calif.), using standard laboratory procedures. BJ cells were treated with 200 nM of each oligomeric compound, and T47D, T47Dp53, HeLa, and B16 cells were treated with 150 nM of each oligomeric compound. The human foreskin fibroblast BJ cell line represents a non-cancer cell line, while HeLa, T47D, T47Dp53 cells and the mouse melanoma cell line B16-F10 represent cancerous cell lines. For comparison, oligomeric compounds ISIS 183891 (SEQ ID NO: 847) and ISIS 285717 ([…]; herein incorporated as SEQ ID NO: 857), both targeting the kinesin-like 1/Eg5 mRNA, involved in cell cycling, were used as positive controls. The random-mer ISIS 29848 was used as a negative control. Additionally, the oligomeric compounds ISIS Number 25690 ([…]; herein incorporated as SEQ ID NO: 858) and ISIS Number 25691 ([…]; herein incorporated as SEQ ID NO: 859), targeted to nucleotides 3051-3070 and 3085-3104, respectively, of the mRNA encoding the Drosha RNase III (GenBank Accession NM_013235.2, incorporated herein as SEQ ID NO: 860) were also tested. ISIS Number 25690 and ISIS Number 25691 are 5-10-52′-MOE gapmer compounds, 20 nucleotides in length, with phosphorothioate internucleoside linkages throughout the oligomeric compound. All cytidine residues are 5-methylcytidines. Transfections were performed using the methods described herein. Cells were prepared for flow cytometry 48-hours after oligonucleotide treatment. Results of these studies are shown in Table 35, where data are expressed as percentage of cells in each phase relative to the untreated control cells in that phase.
# [4] = tested on: T47Dp53 cells; assay: Cell cycle assay in T47Dp53 cells; details: 150 nM, 48 hours, relative to untreated control
# Description: as §1
# [5] = tested on: A549 cells; assay: Cell cycle assay in A549 cells; details: A549 cells, 24 hours, relative to the untreated control cells in that phase
# Description: In accordance with the present invention, certain oligomeric compounds targeting miRNAs were selected for dose response studies. Using the cell cycle assay described above, the cell cycle profiles of HeLa or A549 cells treated with varying concentrations of oligomeric compounds of the present invention were assessed.
# Concomittent decreases in the percentage of cells in G1-phase of the cell cycle and increases in the percentage of hypodiploid (subG1) cells were also observed.
# In a further study, A549 cells were treated with 25-, 50-, 100- or 150 nM of the oligomeric compounds ISIS Numbers 338637 (SEQ ID NO: 464) targeted against mir-96, and ISIS 338769 (SEQ ID NO: 596) targeted against mir-130b, ISIS 338836 (SEQ ID NO: 663) targeted against mir-23a, and ISIS 340350 (SEQ ID NO: 855) targeted against mir-95 (Mourelatos). Cells treated with increasing concentrations of oligomeric compounds were compared to untreated cells, to assess the dose-responsiveness of the observed delay or arrest. The random-mer ISIS 29848 was used as a negative control. Cells were prepared for flow cytometry 24-hours after oligonucleotide treatment. Results of these dose response studies are shown in Table 34, where data are expressed as percentage of cells in each phase relative to the untreated control cells in that phase.
# [6] = 150 nM, 48 hours, relative to untreated control
# [7] = 150 nM oligomeric compound, 24 hours, relative to untreated control (UTC = 100)
substance,measurement,setting,value
"CAGACTCCCAACTGACCAGA (chemistry not fully specified) [ISIS 328382, 5-10-5 2′-MOE gapmer PS; targets the mir-143 pri-miRNA]","expression of the adipocyte differentiation markers, compounds targeting mir-143 miRNA or pri-miRNA compared",[1]; preadipocytes (Table 20),more effective in blocking adipocyte differentiation
25690 (antisense eA*eT*e[5mC]*e[5mC]*e[5mC]*dT*dT*dT*d[5mC]*dT*dT*d[5mC]*d[5mC]*dG*d[5mC]*eA*eT*eG*eT*eG) [compound 25690],% cells in cell cycle phase G1,[2]; [6],119%
same,% cells in cell cycle phase G2/M,[2]; [6],87%
same,% cells in cell cycle phase S,[2]; [6],89%
same,% cells in cell cycle phase aneuploid,[2]; [6],140%
same,% cells in cell cycle phase subG1,[2]; [6],64%
same,% cells in cell cycle phase G1,[3],97%
same,% cells in cell cycle phase G2/M,[3],113%
same,% cells in cell cycle phase S,[3],80%
same,% cells in cell cycle phase aneuploid,[3],140%
same,% cells in cell cycle phase subG1,[3],97%
same,% cells in cell cycle phase G1,[4],97%
same,% cells in cell cycle phase G2/M,[4],114%
same,% cells in cell cycle phase S,[4],108%
same,% cells in cell cycle phase aneuploid,[4],144%
same,% cells in cell cycle phase subG1,[4],193%
"AGCCTCCTTCTTCTCGTACTA (anti-miR; chemistry not fully specified) [ISIS 328129, uniform 2′-MOE PS; targets hypothetical miRNA-173]","expression of the other four hallmark genes (HSL, aP2, Glut4, PPARγ)","[1]; differentiating adipocytes, control ISIS 342673",reduction of expression of the other four hallmark genes
"CCCCATCTTAGCATCTAAGG (chemistry not fully specified) [ISIS 328691, 5-10-5 2′-MOE gapmer PS; targets mir-145 pri-miRNA]",five markers of adipocyte differentiation,"[1]; differentiating adipocytes, % of UTC (Table 55)",increase in all five markers of adipocyte differentiation
"ISIS 348117: SEQ ID NO: 1860, targeted to mir-321-1 (antisense GAACCCACAAUCCCUGGCUUA; all 2'-MOE, all phosphorothioate, methylation of C and T or U not given here)",5 markers of adipocyte differentiation,"[1]; differentiating adipocytes, % of UTC (Table 75)",significantly reduce the expression levels of 3 of the 5 markers of adipocyte differentiation
"AACTATACAACCTACTACCTCA (chemistry not fully specified) [ISIS 327903, uniform 2′-MOE PS; targets let-7a-3]","expression levels of markers of adipocyte differentiation (TG, leptin, aP2, HSL, Glut4, PPARγ)","[1]; preadipocytes, 250 nM, day nine post-transfection, relative to ISIS-29848",increase in expression levels for several markers of adipocyte differentiation
328687 (eG*e[5mC]*eT*eT*e[5mC]*d[5mC]*d[5mC]*dA*dG*d[5mC]*dG*dG*d[5mC]*d[5mC]*dT*eA*eT*eA*eG*eT; antisense) [compound 328687],% cells aneuploid,[2]; [7],149%
same,% cells in cell cycle phase G1,[2]; [7],80%
same,% cells in cell cycle phase G2/M,[2]; [7],131%
same,% cells in cell cycle phase S,[2]; [7],98%
same,% cells in cell cycle phase subG1,[2]; [7],231%
same,% cells in cell cycle phase: G1,[2]; 150 nM oligomeric compound,55%
same,% cells in cell cycle phase: G2/M,[2]; 150 nM oligomeric compound,131%
same,% cells in cell cycle phase: S,[2]; 150 nM oligomeric compound,174%
same,% cells in cell cycle phase: aneuploid,[2]; 150 nM oligomeric compound,171%
same,% cells in cell cycle phase: subG1,[2]; 150 nM oligomeric compound,1119%
same,% cells in cell cycle phase G1,[3],101%
same,% cells in cell cycle phase G2/M,[3],115%
same,% cells in cell cycle phase S,[3],92%
same,% cells in cell cycle phase aneuploid,[3],169%
same,% cells in cell cycle phase subG1,[3],142%
"338769 (antisense GCTTCCCAGCGGCCTATAGT; all 2'-MOE, all phosphorothioate, methylation of C not given here) [compound 338769]",% cells aneuploid,[2]; [7],133%
same,% cells in cell cycle phase G1,[2]; [7],171%
same,% cells in cell cycle phase G2/M,[2]; [7],103%
same,% cells in cell cycle phase S,[2]; [7],61%
same,% cells in cell cycle phase subG1,[2]; [7],188%
same,% cells in cell cycle phase: G1,[2]; 150 nM oligomeric compound,76%
same,% cells in cell cycle phase: G2/M,[2]; 150 nM oligomeric compound,149%
same,% cells in cell cycle phase: S,[2]; 150 nM oligomeric compound,116%
same,% cells in cell cycle phase: aneuploid,[2]; 150 nM oligomeric compound,194%
same,% cells in cell cycle phase: subG1,[2]; 150 nM oligomeric compound,482%
same,% cells in cell cycle phase: G1,[5]; 25 nM,101%
same,% cells in cell cycle phase: G2/M,[5]; 25 nM,114%
same,% cells in cell cycle phase: S,[5]; 25 nM,94%
same,% cells in cell cycle phase: aneuploid,[5]; 25 nM,101%
same,% cells in cell cycle phase: subG1,[5]; 25 nM,62%
same,% cells in cell cycle phase: G1,[5]; 50 nM,114%
same,% cells in cell cycle phase: G2/M,[5]; 50 nM,122%
same,% cells in cell cycle phase: S,[5]; 50 nM,81%
same,% cells in cell cycle phase: aneuploid,[5]; 50 nM,132%
same,% cells in cell cycle phase: subG1,[5]; 50 nM,82%
same,% cells in cell cycle phase: G1,[5]; 100 nM,124%
same,% cells in cell cycle phase: G2/M,[5]; 100 nM,113%
same,% cells in cell cycle phase: S,[5]; 100 nM,75%
same,% cells in cell cycle phase: aneuploid,[5]; 100 nM,157%
same,% cells in cell cycle phase: subG1,[5]; 100 nM,130%
same,% cells in cell cycle phase: G1,[5]; 150 nM,117%
same,% cells in cell cycle phase: G2/M,[5]; 150 nM,145%
same,% cells in cell cycle phase: S,[5]; 150 nM,71%
same,% cells in cell cycle phase: aneuploid,[5]; 150 nM,184%
same,% cells in cell cycle phase: subG1,[5]; 150 nM,341%
same,% cells in cell cycle phase G1,[4],103%
same,% cells in cell cycle phase G2/M,[4],123%
same,% cells in cell cycle phase S,[4],87%
same,% cells in cell cycle phase aneuploid,[4],87%
same,% cells in cell cycle phase subG1,[4],116%
